The results in this text go back to patent US8962844B2, “1,3,4-oxadiazole and 1,3,4-thiadiazole β-lactamase inhibitors” (priority 2012, dated 2015).

Where a name gives a salt, the structure may show the parent alone.

This assay relates to bacterial strains that express the class D cephalosporinase OXA-15. Put plainly: Standard BLI potentiation MIC / synergy MIC (sMIC) assays run in the presence of a β-lactam, OXA-15 expressing strains. The format is cell-based, E. coli. As to conditions: BLI in combination with a β-lactam; comparison with Avibactam (comparator compound CCC). The text has this:
Unless otherwise indicated, the activity of the BLI compounds can be described by the MIC value obtained from a Synergy MIC assay or a BLI potentiation assay (e.g as described herein), both of which are run in the presence of a β-lactam.
A set of β-lactamase expressing isogenic E. coli strains was constructed by cloning a β-lactamase gene into a customized derivative of pBR322 (GenBank Accession Number J01749) and transforming the engineered plasmids into E. coli. The NdeI restriction site within the plasmid backbone of pBR322 was removed to generate pBR322 ΔNdeI. The pBR322 ΔNdeI vector itself, minus the blaTEM-1 gene, was amplified using two primers: (1) pBR-Pbla 5′-cgcatatgactettectttttcaatattattg-3, SEQ ID 1, a primer with an engineered NdeI restriction site at the 3′ end of the blaTEM-1 promoter and (2) pBR-vec-1 5′-[…]-3′, SEQ ID 2, a primer with an engineered BamHI restriction site at the 3′ end of the blaTEM-1 open reading frame. The chloramphenicol resistance gene, cat, was generated by PCR amplification from pKD3 (GenBank Accession Number AY048742) using primers with an engineered NdeI restriction site at the 5′ end (Pbla-cat 5′-[…]-3′, SEQ ID 3) and an engineered BamHI restriction site at the 3′ end (Vec-1-cat 5′-[…]-3′, SEQ ID 4) of the resistance gene. The two PCR products, pBR322 ΔNdeI and cat were ligated together generating pBR-CBST (pBR322 ΔNdeI ΔTEM-1::cat Seq. ID 5) which retains both the pBR322 tetracycline resistance cassette, tetA, and the plasmid origin of replication but the blaTEM-1 gene was replaced by the cat gene.
Using this engineering strategy a number of plasmids producing β-lactamase genes from different classes (see below) were generated using synthetic genes with an engineered NdeI restriction site at the 5′ end and BamHI restriction site at the 3′ end of each gene (GenScript). Both the synthetic β-lactamase genes and cat gene were ligated into the NdeI/BamHI sites of the pBR322 ΔNdeI PCR product and transformed into electrocompetent E. coli ElectroMax DH10B (Invitrogen/Life Technologies). E. coli DH10B harboring the recombinant plasmids were selected on LB agar (supplemented with 25 μg/mL tetracycline) and single isolated colonies were then inoculated into 5 mL LB media (supplemented with 25 μg/mL tetracycline), and incubated at 37° C. with aeration (250 rpm) for 18 hrs. The cultures were frozen back at −80° C. in 20% glycerol. The DNA sequence of the cloned β-lactamase genes was confirmed. The β-lactamase gene expression in the recombinant E. coli strains was driven by the blaTEM-1 promoter in the pBR-CBST plasmid and was characterized by MIC profiling of the E. coli recombinant strains against comparator β-lactam/BLI combinations in broth microdilution assay.
The experimental protocol was performed according to Clinical and Laboratory Standards Institute (CLSI) guidelines with modifications as described below (CLSI guidelines can be derived from the CLSI document M07-A9 published in January 2012: “Methods for Dilution Antimicrobial Susceptibility Tests for Bacteria That Grow Aerobically; Approved Standard-Ninth Edition”).
To prepare for MIC testing, frozen glycerol stocks of clinical isolates (Klebsiella pneumoniae, Eschericia coli, Enterobacter spp, Citrobacter spp, or Pseudomonas aeruginosa) were used to streak for isolated colonies on rich, non-selective, tryptic soy agar containing 5% sheep's blood (TSAB). Frozen glycerol stocks of laboratory engineered, isogenic E. coli strains, which contain cloned β-lactamase expressing plasmids were used to streak for isolated colonies on rich, selective LB agar supplemented with 25 μg/mL tetracycline to maintain the plasmid. All strains were incubated at 37° C. for 18-24 hrs.
On the day of testing, primary cultures were started by scraping off 5-10 colonies from the TSAB plates containing clinical strains or the tetracycline supplemented LB plates containing engineered strains. […]
Regarding `NCC(O)Cc1nnc([C@@H]2CC[C@@H]3CN2C(=O)N3OS(=O)(=O)O)o1` (stereo partly drawn) [Compound 733, (2S,5R)-2-(5-(3-amino-2-hydroxypropyl)-1,3,4-oxadiazol-2-yl)-7-oxo-1,6-diazabicyclo[3.2.1]octan-6-yl hydrogen sulfate], the “activity against bacterial strains that express the class D cephalosporinase OXA-15, compared with Avibactam” value (“activity … compared with Avibactam” below) is listed as “more active than Avibactam”.

As to `N=C(N)N[C@H]1C[C@H](c2nnc([C@@H]3CC[C@@H]4CN3C(=O)N4OS(=O)(=O)O)o2)C1` [Compound 748, (2S,5R)-2-(5-((1r,3S)-3-guanidinocyclobutyl)-1,3,4-oxadiazol-2-yl)-7-oxo-1,6-diazabicyclo[3.2.1]octan-6-yl hydrogen sulfate], the “activity … compared with Avibactam” value was “more active than Avibactam”.

For `N[C@H]1C[C@H](NCc2nnc([C@@H]3CC[C@@H]4CN3C(=O)N4OS(=O)(=O)O)o2)C1` [Compound 757, (2S,5R)-2-(5-((((1r,3S)-3-aminocyclobutyl)amino)methyl)-1,3,4-oxadiazol-2-yl)-7-oxo-1,6-diazabicyclo[3.2.1]octan-6-yl hydrogen sulfate], the “activity … compared with Avibactam” value was “more active than Avibactam”.

On to `O=C1N2C[C@@H](CC[C@H]2c2nnc(CNC3CCNCC3)o2)N1OS(=O)(=O)O` [Compound 769, (2S,5R)-7-oxo-2-(5-((piperidin-4-ylamino)methyl)-1,3,4-oxadiazol-2-yl)-1,6-diazabicyclo[3.2.1]octan-6-yl hydrogen sulfate], for which the “activity … compared with Avibactam” value was “more active than Avibactam”.

In the case of `NC1CCN(c2nnc([C@@H]3CC[C@@H]4CN3C(=O)N4OS(=O)(=O)O)o2)CC1` [Compound 773, (2S,5R)-2-(5-(4-aminopiperidin-1-yl)-1,3,4-oxadiazol-2-yl)-7-oxo-1,6-diazabicyclo[3.2.1]octan-6-yl hydrogen sulfate], the “activity … compared with Avibactam” value was “more active than Avibactam”.

In the case of `O=C1N2C[C@@H](CC[C@H]2c2nnc([C@@H]3CNCCN3)o2)N1OS(=O)(=O)O` [Compound 778, (2S,5R)-7-oxo-2-(5-((S)-piperazin-2-yl)-1,3,4-oxadiazol-2-yl)-1,6-diazabicyclo[3.2.1]octan-6-yl hydrogen sulfate], the “activity … compared with Avibactam” value is listed as “more active than Avibactam”.

Turning to `N[C@H]1CC[C@@H](c2nnc([C@@H]3CC[C@@H]4CN3C(=O)N4OS(=O)(=O)O)o2)CC1` [Compound 780, (2S,5R)-2-(5-((1s,4R)-4-aminocyclohexyl)-1,3,4-oxadiazol-2-yl)-7-oxo-1,6-diazabicyclo[3.2.1]octan-6-yl hydrogen sulfate], the “activity … compared with Avibactam” value is “more active than Avibactam”.

With `N[C@H]1CC[C@H](c2nnc([C@@H]3CC[C@@H]4CN3C(=O)N4OS(=O)(=O)O)o2)CC1` [Compound 781, (2S,5R)-2-(5-((1r,4S)-4-aminocyclohexyl)-1,3,4-oxadiazol-2-yl)-7-oxo-1,6-diazabicyclo[3.2.1]octan-6-yl hydrogen sulfate], the “activity … compared with Avibactam” value is “more active than Avibactam”.

Turning to `O=C1N2C[C@@H](CC[C@H]2c2nnc(CCCN3CCNCC3)o2)N1OS(=O)(=O)O` [Compound 792, (2S,5R)-7-oxo-2-(5-(3-(piperazin-1-yl)propyl)-1,3,4-oxadiazol-2-yl)-1,6-diazabicyclo[3.2.1]octan-6-yl hydrogen sulfate], the “activity … compared with Avibactam” value is “more active than Avibactam”.

For the molecule `O=C1N2C[C@@H](CC[C@H]2c2nnc(N3CCNCC3)s2)N1OS(=O)(=O)O` [Compound 797, (2S,5R)-7-oxo-2-(5-(piperazin-1-yl)-1,3,4-thiadiazol-2-yl)-1,6-diazabicyclo[3.2.1]octan-6-yl hydrogen sulfate], the “activity … compared with Avibactam” value was “more active than Avibactam”.
